# Where two headings read alike, the source gives them in different places.
# Legend:
# SARS-CoV-2 = test: Plaque reduction / time-of-addition assay; type: cell-based; details: for IC50: Vero E6, MOI 0.1, plaque assay
# [1] = Cell viability assay (crystal violet); details: African green monkey
# SARS-CoV = details: cited from earlier work
# [2] = Severe acute respiratory syndrome coronavirus 2, Vero C1008, compound added at the time of infection (0 h), read-out: IC50 (µM) 0 h
# [3] = Severe acute respiratory syndrome coronavirus 2, Vero C1008, read-out: IC50 (µM) 1 h, compound added 1 h postinfection
SMILES,IC50 (SARS-CoV-2; [2]) [µM],"viability at 48 h, 10 µM [1] [%]",IC50 (SARS-CoV-2; [3]) [µM],plaque reduction (SARS-CoV-2; compound added 1 h postinfection),IC50 (SARS-CoV) [µM]
"O=C1c2cc(N3CCOCC3)c(Cc3ccccc3)nc2C(c2ccccc2F)N1CCNc1ccnc2cc(Cl)ccc12 (stereo not drawn) [19e, 2-Benzyl-6-(2-((7-chloroquinolin-4-yl)amino)ethyl)-7-(2-fluorophenyl)-3-morpholino-6,7-dihydro-5H-pyrrolo[3,4-b]pyridin-5-one]",17.1,–,–,–,–
"O=C1c2cc(N3CCOCC3)c(Cc3ccccc3)nc2C(c2ccc(C(F)(F)F)cc2)N1CCNc1ccnc2cc(Cl)ccc12 (stereo not drawn) [19g, 2-Benzyl-6-(2-((7-chloroquinolin-4-yl)amino)ethyl)-3-morpholino-7-(4-(trifluoromethyl)phenyl)-6,7-dihydro-5H-pyrrolo[3,4-b]pyridin-5-one]",7.5,> 80,6.98,–,–
"CCN(CC)c1cc2c(nc1Cc1ccccc1)C(c1ccc(F)cc1)N(CCNc1ccnc3cc(Cl)ccc13)C2=O (stereo not drawn) [19d, 2-Benzyl-6-(2-((7-chloroquinolin-4-yl)amino)ethyl)-3-(diethylamino)-7-(4-fluorophenyl)-6,7-dihydro-5H-pyrrolo[3,4-b]pyridin-5-one]",6.74,> 90,–,–,–
"CCN(CC)c1cc2c(nc1Cc1ccccc1)C(c1ccc(C(F)(F)F)cc1)N(CCNc1ccnc3cc(Cl)ccc13)C2=O (stereo not drawn) [19i, 2-Benzyl-6-(2-((7-chloroquinolin-4-yl)amino)ethyl)-3-(diethylamino)-7-(4-(trifluoromethyl)phenyl)-6,7-dihydro-5H-pyrrolo[3,4-b]pyridin-5-one]",24,> 90,5.29,approximately one logarithmic unit,–
CCN(CC)CCCC(C)Nc1ccnc2cc(Cl)ccc12 (stereo not drawn) [Chloroquine],–,–,–,–,8.8
"O=C1c2cc(N3CCOCC3)c(Cc3ccccc3)nc2C(c2ccccc2F)N1CCCNc1ccnc2cc(Cl)ccc12 (stereo not drawn) [19f, 2-Benzyl-6-(3-((7-chloroquinolin-4-yl)amino)propyl)-7-(2-fluorophenyl)-3-morpholino-6,7-dihydro-5H-pyrrolo[3,4-b]pyridin-5-one]",9.23,> 80,–,–,–
"O=C1c2cc(N3CCOCC3)c(Cc3ccccc3)nc2C(c2cc(C(F)(F)F)cc(C(F)(F)F)c2)N1CCNc1ccnc2cc(Cl)ccc12 (stereo not drawn) [19j, 2-Benzyl-7-(3,5-bis(trifluoromethyl)phenyl)-6-(2-((7-chloroquinolin-4-yl)amino)ethyl)-3-morpholino-6,7-dihydro-5H-pyrrolo[3,4-b]pyridin-5-one]",15,–,–,–,–
"O=C1c2cc(N3CCOCC3)c(Cc3ccccc3)nc2C(c2c(F)c(F)c(F)c(F)c2F)N1CCCNc1ccnc2cc(Cl)ccc12 (stereo not drawn) [19l, 2-Benzyl-6-(3-((7-chloroquinolin-4-yl)amino)propyl)-3-morpholino-7-(perfluorophenyl)-6,7-dihydro-5H-pyrrolo[3,4-b]pyridin-5-one]",7.06,–,–,–,–

# From article PMC12347832, “Multi-Component Synthesis of New Fluorinated-Pyrrolo[3,4-b]pyridin-5-ones Containing the 4-Amino-7-chloroquinoline Moiety and In Vitro–In Silico Studies Against Human SARS-CoV-2” (International Journal of Molecular Sciences, 2025)
